According to patent US10035780B2, “Quinazoline scaffold based compounds, pharmaceutical compositions and methods of use thereof” (TECHNION RESEARCH & DEVELOPMENT FOUNDATION LTD., priority 2014, dated 2018):
“Also recorded” adds a separate entry of the source.

Tests used:
TSPO = TSPO (Homo sapiens (Human), UniProt P30536); type: binding; settings: displacement of [3H]PK 11195 from TSPO
Experimental: Briefly, the assay utilizes radioactive standard ligand [^3H] PK 11195 (1-(2-chlorophenyl)-N-methyl-N-(1-methyl-propyl)-3 isoquinolinecarboxamide), and measures the ability of the compounds of the invention to displace standard ligand in binding to TSPO. Total radioactive binding was determined by measuring the radioactivity of the radioactive ligand-receptor complex, obtained in the reaction of radioactive standard with the TSPO. Radioactive standard and the examined compound were added to the TSPO and after some incubation time the radioactivity of the resulting ligand-receptor complexes was measured with the help of a […]. This radioactivity indicates the binding of the radioactive standard to TSPO. […] This can be expressed as the half maximal inhibitory concentration (IC50), which is a measure of the effectiveness of a compound in inhibiting biological or biochemical function, in this case inhibiting binding of standard radioactive ligand binding to the TSPO. A derivative of the IC50 is the Ki, which is the calculated binding affinity of the novel compound to the TSPO.
Binding to TSPO was evaluated using a [^3H]PK 11195 radio-assay, as described above.

U118MG cells = experiment: Protection against cell death induced by glutamate in U118MG cell culture; type: cell-based, human; settings: for protection against cell death induced by glutamate: U118MG cells, 35 mM glutamate, compound 1-100 μM; for Protection against glutamate-induced cell death: cell culture, grade in words
Experimental: (§1) Cell cultures of various human glial type cell lines (T98G, U87MG, A172, U118MG), as well as human neuronal type cell lines SH-SY 5Y and Be(2)-C were used to test the new compounds. In addition, the rat glioma cell line C6 was used. PC12 cells originating from rats were used as another cell line displaying neuronal characteristics. The applicants also have produced, by genetic manipulation, a modified rat C6 glial cell strain and a modified human U118MG glial type cell strain, both under-expressing the TSPO, which allows to study TSPO specific effects, including of the compounds of the invention, which can be done according to methods described previously (Weisinger et al. Biochemistry. 2004; 43:12315-21; Levin et al. 2005; Zeno et al., 2009).
The protective capabilities of the compounds of the invention and involvement of the TSPO were tested in cell culture, using cell lines of glial and neuronal type, cultured and testing according to standard methods (Kugler et al. 2008; Zeno et al. 2009; Dadon-Nachum et al. Stem Cell Rev. 2011; 7:664-71). Furthermore, primary cell cultures are also used (Banker, G. et al. Culturing Nerve Cells, 2nd Edition, The MIT Press (1998). Treatments included: (1) exposure to glutamate (35 mM), Abeta(1-42), NH4Cl, CoCl2, and nitric oxide (NO) donors, in order to mimic particular aspects of neurodegeneration; (2) treatment with the novel compounds and with traditional TSPO ligands as comparative treatment; and (3) TSPO knockdown by genetic manipulation.
Techniques and parameters assayed are summarized here: Total protein levels (Bradford. Anal Biochem. 1976; 72:248-54); TSPO ligand binding assays (Kugler et al. 2008; Levin et al. 2005; Danovich et al. Eur Neuropsychopharmacol. 2008; 18:24-33) cell death, including apoptosis and necrosis and related molecular biological processes (Soustiel et al. Neuropathol Appl Neurobiol. 2008; 34:412-23; Soustiel et al. Exp Neurol. 2008; 214:201-8; Zeno et al. 2009); mitochondrial transmembrane potential collapse (Chelli et al. Biochem Pharmacol. 2004; 68:125-34; Kugler et al. 2008; Zeno et al., 2009; Shargorodsky et al. Apoptosis. 2012; 17:647-65), reactive oxygen species (ROS) generation as a measure of oxidative stress (Veenman et al. 2008; Zeno et al. 2009); TSPO knockdown (Levin et al. 2005; Zeno et al. 2009); expression levels of mitochondrial TSPO and associated proteins (Veenman et al. 2002; Levin et al. 2005; Veenman et al. 2008); gene expression with RT-PCR and microarray analysis (Bode et al. 2012; Veenman et al. 2012). Parameters of inflammation, immune response, migration, and the cell cycle are also tested. All these approaches can also be applied for quality control of the compounds.
The compounds of the invention protect against cell death induced by glutamate in cell culture of U118MG cells of astrocytic origin (FIGS. 1, 2, 3 and 8) or SH SY 6Y cells of neuronal origin (FIG. 4). […] In the control group, 35 mM of glutamate killed ˜60% of the cells.
The experimental setup is explained using FIG. 8B as an example: • 1. Control: Cell death levels are taken as 0% • 2. Glu: Cell death levels induced by glutamate are over 50% • 3. […] Glu+Cpd 5: When Cpd 5 is given as a treatment to counteract cell death induced by glutamate, increasing concentrations of Cpd 5 reduce cell death levels from over 50% to less than 5%.

R6-2 mice [1] = experiment: Lifespan of R6-2 mice, transgenic model for Huntington Disease; type: in vivo, mouse; settings: for effect on lifespan: daily s.c. injections 5 days a week from week 5, vs DMSO and saline
From the text: For the assays described herein systemic injections of kainic in rats were applied and also contusion (Veenman et al. 2002; Soustiel et al. Neuropathol Appl Neurobiol. 2008; Soustiel et al. Exp Neurol. 2008). These models present very well defined cell death in the brain. Cell death in the brain is the major pathological characteristic of progressing neurodegeneration common to brain diseases. As the compounds of the present invention are designed to prevent cell death in the brain as a consequence of disease and progressing brain damage after injury, including behavioral impairments, animal models displaying cell death in the brain are the models of choice for displaying the protective capabilities of the compounds of the invention. For these reasons the R6-2 model for Huntington Disease was chosen to test the effectiveness of Compound 1 and to compare the effectiveness of Compound 1 with those of the compound of U.S. Pat. No. 8,541,428 (Cpd A) and with the classical TSPO ligand PK 11195, as well as other compounds disclosed herein. Compounds 5 and 6 were also tested in the same R6-2 model.
R6-2 is a transgenic mouse model for Huntington Disease. Huntington Disease in humans is a hereditary neurodegenerative disease affecting motor performance and finally leading to death of the patients having the disease. R6-2 mice (˜120 CAG repeats B6CBA-Tg(HDexon1)62 Gpb/3J) mice were used for the experiments described below. For this purpose, mice obtained from the Jackson Laboratory (ME) were bred. In particular: males genotype: Hemizygous for Tg(HDexon1)62 Gpb, and females from the wildtype background strain B6CBAF1/J were bred according to the protocol of Jackson Laboratory. The male heterozygote offspring (R6-2 mice) were used for determining life span and motor activity, with and without drug treatment. Drug treatment consisted of daily (5 continuous days a week) subcutaneous injections of mice with 20 μl of: saline (sham control), vehicle DMSO (vehicle control), classic TSPO ligand PK 11195 (15 mg/kg), prior art Compound A (15 mg/kg), Compound 1 (15 mg/kg), and compound 1 (7.5 mg/kg). Drug treatment started on week 5 after birth. Quantities were used according to previous studies regarding TSPO ligands.
(§2) Apart from the behavioral experiments, mice were observed daily, and the day of death was noted. Behavioral experiments included distance covered in an open field apparatus, and tremor measurements.
R6-2 mice were used as previously described in Example 5. In one experiment, treatment consisted of daily (5 continuous days per week) subcutaneous injections of mice with 20 μl of vehicle DMSO (control, n=10) and Compound 6 (7.5 mg/kg, n=12). In a separate experiment, compound 5 (7.5 mg/kg, n=5) was tested, compared to DMSO control (n=5).

R6-2 mice [2] = experiment: Incidence of tremor in R6-2 mice; type: in vivo, mouse
From the text: as §2
To assay incidence of tremor in R6-2 mice of the experiments for this invention, the StartleMonitor of Kinder Scientific (Poway, Calif.), with specific software to assay and present force pressure changes in newtons, was used.

SH SY 6Y cells = experiment: Protection of SH SY 6Y neuronal cells against lethal effects of glutamate; type: cell-based, human
Experimental: as §1
The protective capabilities of the compounds of the invention and involvement of the TSPO were tested in cell culture, using cell lines of glial and neuronal type, cultured and testing according to standard methods (Kugler et al. 2008; Zeno et al. 2009; Dadon-Nachum et al. Stem Cell Rev. 2011; 7:664-71). […]

Sequence of TSPO (P30536 whole entry): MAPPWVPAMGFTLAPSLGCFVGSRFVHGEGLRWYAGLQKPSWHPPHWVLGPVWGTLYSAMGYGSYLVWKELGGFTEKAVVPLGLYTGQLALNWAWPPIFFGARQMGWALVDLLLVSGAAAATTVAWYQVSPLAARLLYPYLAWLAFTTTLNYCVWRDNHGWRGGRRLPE

Compound: CN(C)C(=O)Oc1nc(-c2ccccc2Cl)nc2ccccc12 [Compound 5, 2-(2-chlorophenyl)quinazolin-4-yl dimethylcarbamate]
- Ki (TSPO): ~0.6 µM
- lethal effects of compound at high concentration (U118MG cells; 100 μM compound alone, halogenated vs unhalogenated analog): reduces lethal effects; also recorded: reduces cell death effects; also recorded: least adverse side effects
- protection against cell death induced by glutamate (U118MG cells): protect better and more consistently; also recorded: superior over the rest of the compounds
- protection against cell death induced by glutamate (U118MG cells; listed as Cpd 5): improves protection
- Protection against glutamate-induced cell death (U118MG cells): Excellent
- cell death levels induced by compound by itself (U118MG cells; compound alone, no glutamate): ≤ 5%
- cell death effect of glutamate at high compound concentration (U118MG cells; glutamate plus 100 μM compound, halogenated vs unhalogenated analog): reduces cell death effect of glutamate in cultures even further
- cell death levels, Glu + compound (U118MG cells; glutamate plus increasing concentrations of compound, glutamate alone over 50%): less than 5%
- mice living up to 18 weeks (R6-2 mice [1]; 7.5 mg/kg s.c.): 20%
- mice still alive at 11th week (R6-2 mice [1]; 7.5 mg/kg s.c., >50% of DMSO mice dead): 100%
- mice still alive at 12 weeks (R6-2 mice [1]; 7.5 mg/kg s.c., all DMSO mice dead): 50%
- effect on lifespan (R6-2 mice [1]): increase the average lifespan; also recorded: extends the life span
- effect on lifespan (R6-2 mice [1]; listed as compound 5): robust lifespan enhancing
- incidence of tremor activity (R6-2 mice [2]): tremor reducing effects; also recorded: reduced the incidence of tremor activity

Compound: CCN(CC)C(=O)Oc1nc(-c2ccc(Br)cc2)nc2ccccc12 [Compound 4, 2-(4-bromophenyl)quinazolin-4-yl diethylcarbamate]
- Ki (TSPO): ~0.045 µM
- Protection against glutamate-induced cell death (U118MG cells): Good
- protection against lethal effects of glutamate (SH SY 6Y cells): protects neuronal cells
